Reference: US20240301000A1, “TETRAPEPTIDE DERIVATIVE,COSMETIC COMPOSITION OR PHARMACEUTICAL COMPOSITION AND USE THEREOF” (SHENZHEN WINKEY TECHNOLOGY CO., LTD, priority 2021, published 2024)
Residues, ends and D or L forms follow the SMILES beside them. *: point of attachment. X1 = O=C(OCc1cc(=O)c(O)co1)*; Nicotinoyl = O=C(c1cccnc1)*

Tests used:
Format in all cases: cell-based, Human
α-MSH = experiment: Cell assay for inhibition of α-MSH generation (ELISA, HaCaT supernatant); settings: 100 ppm, 48 h; for statistical difference in the α-MSH inhibition compared with the control group: HaCaT (FIG. 2); for effect on α-MSH expression: HaCaT supernatant, compared with PBS control group (FIG. 2)
Procedure: Fetal bovine serum, DMEM medium, penicillin, streptomycin, and an α-MSH ELISA kit.
(§1) Human keratinocytes (HaCaT) were purchased from the Kunming Cell Bank of China Center for Type Culture Collection under the Chinese Academy of Sciences.
• 100 ppm of the reference peptide, 100 ppm of the peptide (1), 100 ppm of the peptide (3), 100 ppm of the peptide (5), 100 ppm of NA, 100 ppm of TXC, and 100 ppm of KA.
(§2) The frozen HaCaT cells were cultured and passaged at a ratio of 1:2 to about the 5th generation, and the cells in better growth were selected as experiment subjects.
When the cells were about 80% confluent, the samples were added to each group. In the control group, a PBS solution was added and supplemented with a culture medium to 1000 μL. In the drug groups, the diluted active substance and the culture medium were added to 1000 μL and the groups were further incubated in a 5% CO2 incubator at 37° C. for 48 h. After the completion of the culture, the solutions were centrifuged at 3000 rpm for 10 min, in each of which a cell supernatant was collected to obtain a sample liquid. Operations were performed according to the instructions of the α-MSH kit.
α-MSH can promote the formation of melanin by activating tyrosinase. Therefore, down-regulation of the α-MSH expression can reduce melanin generation and exert a whitening effect.

HaCaT cells = experiment: Cell viability assay (MTT) in HaCaT cells; settings: 1, 10, 100 and 200 ppm, 72 h, compared with PBS control group (FIG. 1)
From the text: as §1
• the peptide H-Pro-Lys-Glu-Lys-OH (hereinafter referred to as the reference peptide), at a test concentration of 1 ppm, 10 ppm, 100 ppm, and 200 ppm, respectively; • the peptide (1), at a test concentration of 1 ppm, 10 ppm, 100 ppm, and 200 ppm, respectively; • the peptide (3), at a test concentration of 1 ppm, 10 ppm, 100 ppm, and 200 ppm, respectively; • the peptide (5), at a test concentration of 1 ppm, 10 ppm, 100 ppm, and 200 ppm, respectively.
The purpose of this experiment is to evaluate cell viability 72 h after administration and determine the effect of the peptide derivatives of the present invention on cell viability by using HaCaT cells as the experiment subject.
as §2
The cells were inoculated in a 96-well plate at 2000 cells/well. After the cells adhered to the wall, samples of the drug groups and the control group were added according to the multiple dilution method, supplemented with a culture medium to 200 μL, and cultured in a 5% CO2 incubator at 37° C. for 72 h.
Then 20 μL 5 mg/ml MTT was added to each well and the incubation was continued in the 5% CO2 incubator at 37° C. for 4 h. The original solution was removed and DMSO was added at 150 μL/well. After 5 min, the microplate reader was used to read the reference OD values at 490 nm and 630 nm wavelengths.
The MTT assay is a method of detecting cell survival and growth. The measured OD values are directly proportional to cell viability.

IL-6 = experiment: Anti-inflammatory cell assay, UV-irradiated HaCaT cells, IL-6 ELISA; settings: 50 ppm, 48 h after UV irradiation, compared with UV group (FIG. 3)
Procedure: (§3) Fetal bovine serum, DMEM medium, penicillin, streptomycin, an IL-6 ELISA kit and a TNF-α ELISA kit.
as §1
(§4) • 50 ppm of the reference peptide, 50 ppm of the peptide (1), 50 ppm of the peptide (3), and 50 ppm of the peptide (5).
as §2
(§5) When the cells were about 80% confluent, a model of inflammation stimulated by UV radiation was established. In the control group, a PBS solution was added and supplemented with the culture medium to 1000 μL, while no UV irradiation was performed; The UV group and the drug groups were exposed to an […] UV light. After irradiation, in the UV group the PBS solution and a culture medium were added to 1000 μL, and in the drug groups the diluted active substance and the culture medium were added to 1000 μL. The control group, the UV group, and the drug groups were further incubated in a 5% CO2 incubator at 37° C. for 48 h. After the completion of the culture, the solutions were centrifuged at 3000 rpm for 10 min, in each of which a cell supernatant was collected to obtain a sample liquid. […]

TNF-α = experiment: Anti-inflammatory cell assay, UV-irradiated HaCaT cells, TNF-α ELISA; settings: 50 ppm, 48 h after UV irradiation, compared with UV group (FIG. 4)
Procedure: as §3, §1, §4, §2, §5

Compound | statistical difference in the α-MSH inhibition compared with the control group (α-MSH) | effect on α-MSH expression (α-MSH) | effect on HaCaT cell viability (HaCaT cells) | effect on IL-6 expression (IL-6) | effect on TNF-α expression (TNF-α)
O=c1cc(CO)occ1O [KA, kojic acid] | no statistical difference | inhibited the α-MSH expression to a certain extent | – | – | –
O=C(O)c1cccnc1 [NA, niacin] | no statistical difference | inhibited the α-MSH expression to a certain extent | – | – | –
NCCCCC(NC(=O)C(CCC(=O)O)NC(=O)C(CCCCN)NC(=O)C1CCCN1C(=O)c1cccnc1)C(=O)O (stereo not drawn) [peptide (1), NA-Pro-Lys-Glu-Lys-OH] (Nicotinoyl-PKEK-OH; configuration not given here) | – | – | no significant effect | – | –
NCCCCC(NC(=O)C(CCC(=O)O)NC(=O)C(CCCCN)NC(=O)C1CCCN1C(=O)OCc1cc(=O)c(O)co1)C(=O)O (stereo not drawn) [peptide (5), KA-CO-Pro-Lys-Glu-Lys-OH] (X1-PKEK-OH; configuration not given here) | – | – | no significant effect | – | –
H-Pro-Lys-Glu-Lys-OH (H-PKEK-OH) [reference peptide] | no statistical difference | inhibited the α-MSH expression to a certain extent | – | significantly down-regulated | inhibited the TNF-α expression to a certain extent, but the inhibitory effect was not obvious
TXC-Pro-Lys-Glu-Lys-OH [peptide (3)] | – | significantly down-regulated | no significant effect | significantly down-regulated | significantly down-regulated
tranexamic acid [TXC] | – | inhibited the α-MSH expression to a certain extent | – | – | –
